Tests used:
[1] = LX-2 cell survival, sulforhodamine B (SRB) assay; format: cell-based; details: human, LX-2 cells
Protocol: LX-2 cell survival was measured by sulforhodamine B (SRB) assay. The cells were seeded in 96-well plates at the density of 2 × 10^4/well and cultured in DMEM/GlutaMAX I medium with 10% fetal bovine serum (FBS) with 5% CO2, 37 °C. The cells were treated by the aloperine derivates for 24 h, washed by PBS for three times. Then the cells were fixed with 10% (wt/vol) trichloroacetic acid for 1 h and stained with SRB for 0.5 h. Subsequently, the protein-bound dye was dissolved in 10 mM Tris base solution after removing excess SRB dye washing repeatedly with 1% (vol/vol) acetic acid, the optical density (OD) was determined at 510 nm with a microplate reader.

COL1A1 protein = test: Western blot of COL1A1 protein in LX-2 cells; format: cell-based; details: Homo sapiens, 24 h, read-out: Inhibition rate of COL1A1 protein; for inhibition at 6 µM: with TGF-β1, 6 μM; for inhibition at 12 µM: with TGF-β1, 12 μM
Protocol: Then the anti-COL1A1 effects of 4n and 4p on protein level were evaluated by western blot assay.
LX-2 cells were cultured as described above. Cells were washed with phosphate-buffered saline (PBS) and were resuspended by radioimmunoprecipitation assay (RIPA) lysis buffer for 30 min in 4 °C; the supernatant was collected after centrifugation at 12000 g for 15 min at 4 °C. Subsequently, equal amounts of protein were quantified with Bradford assay, separated using SDS-PAGE and transferred onto polyvinylidene difluoride membrane. The membranes were blocked with 5% milk in PBST for 1 h, and probed with specific primary antibodies overnight at room temperature. The membrane was washed three times by PBST, and probed with horseradish peroxidase-conjugated secondary antibodies and GAPDH. The proteins were visualized by chemiluminescence reagents. Antibodies used in western blot analysis were obtained from Abcam (Cambridge, UK): anti-collagen 1 (ab34710), anti-TGF beta 1 antibody (ab179695), anti-alpha smooth muscle actin (ab32575) and Cell Signaling Technology (Danvers, MA, USA): GAPDH (D16H11) Rabbit mAb (5174).

in vivo = details: both sexes, Kunming, mouse, po
Protocol: (§1) To evaluate the safety profiles of the key compounds 4i, 4n and 4p, an acute toxicity test was performed in Kunming mice. Compound 4i was given orally in a single-dosing experiment at 100, 300 and 400 mg kg^−1, while 4n at 300, 400, 500 mg kg^−1, and 4p at 200, 400, 500 mg kg^−1. The mice were closely monitored for 7 days.
(§2) Male and Female Kunming mice with weight of 20.0 ±1.0 g were obtained from the Institute of Laboratory Animal Science (Beijing, China). Animals wer e cared according to the institutional guidelines of the Institute of Medicinal Biotechnology, CAMS&PUMC (IMB-20190610D3), and fed with regular rodent chow and housed in an air conditioned room. The mice were randomly divided into different groups with four male mice and four female mice each. Each compound was given orally in a single-dosing experiment, the dose of 4i was 100, 300 and 400 mg kg^−1, the dose of 4n was 300, 400, 500 mg kg^−1, the dose of 4p was 200, 400, 500 mg kg^−1 (ddH2O as control). The mice were closely monitored for 7 days. Body weight as well as survival was monitored.

Kunming mice = test: in vivo; details: both, mouse, po, 7 days
Protocol: as §1, §2

SMILES | CC50 at 24 h [1] | inhibition at 6 µM (COL1A1 protein) | inhibition at 12 µM (COL1A1 protein) | LD50 at 7 days (in vivo) | median lethal dose (LD50) (Kunming mice)
O=C(CN1CCCC2=C[C@H]3C[C@H](CN4CCCC[C@H]34)[C@@H]21)N(c1ccccc1)c1ccc2ccccc2c1 [4n, 12N-(N’-(Naphthalen-2-yl)-N’-phenyl)carbamoylmethyl aloperine] | 17.1 ± 5.4 µM | 31.8% | 76.5% | 500 mg/kg | 500 mg/kg
O=C(CN1CCCC2=C[C@H]3C[C@H](CN4CCCC[C@H]34)[C@@H]21)N1c2ccccc2Oc2ccccc21 [4p, 12N-N′-Phenoxazinylcarbamoylmethyl aloperine] | 34.8 ± 2.9 µM | 22.7% | 79.2% | 400 mg/kg | 400 mg/kg
